The text below walks through data of patent publication US8551963B2, “Imidazolothiazole compounds and methods of use thereof” (Ambit Biosciences Corporation, priority 2008, dated 2013).

The test system of data set [1] is P-glycoprotein (MDR1). Description: in vitro. Particulars: dog.
A short description of data set [2]: Aqueous and surfactant solubility. It counts as physicochemical. The settings on record: room temperature overnight.
A short description of data set [3]: Microsomal stability and metabolic turnover, pooled rat liver microsomes. Particulars: pH 7.4. (In general: Microsomes from liver hold many membrane-bound enzymes, among them those of drug oxidation.)
Data set [4] is described as follows: Microsomal stability and metabolic turnover, pooled Cynomolgus monkey liver microsomes. Particulars: pH 7.4.
The nature of data set [5]: Microsomal stability, pooled mouse liver microsomes. Particulars: pH 7.4. The format is in vitro ADME. Here is the method:
Microsomes were stored at −80° C. prior to use.
The final incubation volume was 600 μL.
The elimination rate constant (k)=(−slope)

Data set [6] can be described thus: Microsomal stability and metabolic turnover, pooled human liver microsomes. The settings on record: both, pH 7.4.
The nature of data set [7]: Microsomal stability and metabolic turnover, pooled dog liver microsomes. The settings on record: pH 7.4.
Data set [8] deals with MDR1-MDCK cells. The settings on record: dog, MDCK-MDR1, 10 μM, pH 7.4.
Data set [9] is described as follows: in vitro. The settings on record: dog, microsomes.
Data set [10] is described as follows: In vivo clearance, dog. The text has this:
(§1) Clearance was modest in dog microsomes, and high in Cynomolgus monkey microsomes. Using a comparison of in vitro and in vivo clearance, human clearance can be predicted. The in vitro intrinsic clearance is influenced by animal weight, hepatic blood flow, relative liver weight, and amount of protein/liver weight. […] Human clearance is predicted to be low (Table 2).

The nature of data set [11]: In vivo clearance, mouse. Particulars: clearance call in words.
Description: as §1

For data set [12], the system named is RS4;11 cells. Description: RS4;11 cellular proliferation assay (Cell Titer Blue). The format is cell-based. The settings on record: Homo sapiens, RS4-11, 48 h, read-out: EC50 (50% inhibition of cellular proliferation).
The nature of data set [13]: in vitro. The settings on record: both, human, microsomes, pH 7.4.
For data set [14], the system named is MV4;11 cells. Description: MV4;11 cellular proliferation assay (Cell Titer Blue). Particulars: Homo sapiens, MV4-11, 72 h, read-out: EC50 (50% inhibition of cellular proliferation). It counts as cell-based. A general note: The colour change of resazurin is a common sign of viable cells or microbes.
Data set [15] can be described thus: In vivo clearance, monkey.
Description: as §1

A short description of data set [16]: in vitro. Particulars: rat, microsomes, pH 7.4.
Data set [17] is described as follows: In vivo clearance, rat.
Description: as §1

The nature of data set [18]: Predicted human in vivo clearance. The settings on record: predicted from comparison of in vitro and in vivo clearance.
Description: as §1

Data set [19] is described as follows: in vitro. The settings on record: monkey, microsomes, pH 7.4.
For data set [20] the following is noted: dog, microsomes, 1 μM, pH 7.4.
In data set [21] the test system is plasma protein. The experiment in a line: Plasma protein binding assay (equilibrium dialysis). It counts as in vitro ADME. The settings on record: 1 μM, equilibrium dialysis 16-20 hours at 37° C. As for the experimental part:
Reagents: 1× Isotonic PBS (Mediatech, Inc., Herndon, Va.); 96 Well Equilibrium Dialyzer (Harvard Apparatus, Holliston, Mass.) and Animal plasma from species of interest.
1 μM solutions of test compound were prepared in both isotonic PBS and 10% animal plasma in isotonic PBS.
200 μl of each test solution was added to opposite sides of the equilibrium dialysis membrane.
Samples were incubated for 16-20 hours at 37° C.
After incubation, 100 μl sample was removed from the PBS side and diluted with 100 μl of 20% animal plasma in PBS.
100 μl sample was removed from the 10% animal plasma side and diluted with 100 μl of 10% animal plasma.
A calibration curve was prepared in 10% animal plasma to extrapolate unknown concentrations.
Samples were analyzed by LC/MS/MS.
50 μl of samples, calibration standards and quality control standards were extracted with 100 μl of acetonitrile containing 25 ng/ml of internal standard.
Calculations Calculate fraction unbound in 10% plasma Fu(10%)=1−(PC−PF)/PC) Convert 10% plasma value to 100% Fu(100%)=Fu10%/(10−9*Fu10%).
For orientation: Equilibrium dialysis compares concentrations on both sides of a semipermeable membrane.

In data set [22] the target is P-Glycoprotein (Homo sapiens (Human), UniProt P08183). The experiment in a line: Digoxin bidirectional MDR1-MDCK permeability, Compound I-1 as an inhibitor. Particulars: dog; for Papp A→B at 1 μM: MDCK-MDR1, pH 7.4, Digoxin PeAP→BL; for Papp B→A at 1 μM: MDCK-MDR1, pH 7.4, Digoxin PeBL→AP.
Chain of P-Glycoprotein (P08183 whole entry): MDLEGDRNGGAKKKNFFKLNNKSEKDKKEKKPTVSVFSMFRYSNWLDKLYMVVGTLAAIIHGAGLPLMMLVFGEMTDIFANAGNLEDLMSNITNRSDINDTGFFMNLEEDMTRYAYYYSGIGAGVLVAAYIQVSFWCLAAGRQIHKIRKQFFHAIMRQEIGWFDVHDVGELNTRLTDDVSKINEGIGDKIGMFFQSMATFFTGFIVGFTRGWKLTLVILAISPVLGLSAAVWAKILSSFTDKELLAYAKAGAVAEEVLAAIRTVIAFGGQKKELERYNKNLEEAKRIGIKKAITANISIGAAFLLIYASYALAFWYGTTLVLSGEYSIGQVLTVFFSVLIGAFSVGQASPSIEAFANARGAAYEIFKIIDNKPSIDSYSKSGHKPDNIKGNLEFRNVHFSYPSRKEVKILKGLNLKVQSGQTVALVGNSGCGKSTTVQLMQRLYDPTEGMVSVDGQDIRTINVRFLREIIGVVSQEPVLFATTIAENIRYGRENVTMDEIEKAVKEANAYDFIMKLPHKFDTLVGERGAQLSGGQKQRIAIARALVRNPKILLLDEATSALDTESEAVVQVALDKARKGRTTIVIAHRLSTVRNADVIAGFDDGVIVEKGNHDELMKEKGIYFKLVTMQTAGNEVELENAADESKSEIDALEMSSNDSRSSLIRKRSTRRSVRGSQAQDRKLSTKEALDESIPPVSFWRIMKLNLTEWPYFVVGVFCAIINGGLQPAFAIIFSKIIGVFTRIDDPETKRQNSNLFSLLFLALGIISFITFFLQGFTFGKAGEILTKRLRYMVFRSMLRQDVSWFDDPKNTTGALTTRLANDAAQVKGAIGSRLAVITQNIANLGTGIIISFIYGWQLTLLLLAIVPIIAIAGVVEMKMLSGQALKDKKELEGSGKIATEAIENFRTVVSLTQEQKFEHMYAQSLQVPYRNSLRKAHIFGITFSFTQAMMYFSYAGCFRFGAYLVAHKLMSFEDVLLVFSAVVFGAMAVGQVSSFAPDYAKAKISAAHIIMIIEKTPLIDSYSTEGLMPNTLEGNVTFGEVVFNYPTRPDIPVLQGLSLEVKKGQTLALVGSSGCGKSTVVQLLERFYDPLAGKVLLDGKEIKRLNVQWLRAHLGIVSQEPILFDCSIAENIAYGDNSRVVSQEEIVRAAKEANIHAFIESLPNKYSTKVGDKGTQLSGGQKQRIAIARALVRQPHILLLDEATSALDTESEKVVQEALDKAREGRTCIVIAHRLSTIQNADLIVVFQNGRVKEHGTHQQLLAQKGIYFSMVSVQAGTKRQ
[23] abbreviates: in vivo, read-out: In Vivo t1/2 (converted).
[24] abbreviates: Table 17, Digoxin 1 μM alone, Std.
The mark [25] stands for this setting: Table 17, Digoxin 1 μM alone, Surf.
The mark [26] stands for this setting: preliminary experiment, Digoxin 1 μM alone, Std.
Where [27] appears, read: preliminary experiment, Digoxin 1 μM alone, Surf.

In general, efflux ratio refers to a quotient of directional permeabilities that is used to spot active efflux. In general, Papp A→B refers to the apparent permeability from the apical to the basolateral side of a cell layer. A word on the Papp B→A: it is how fast a substance crosses the layer from the basolateral side. A word on the solubility: it is the dissolved amount per volume that the medium holds. Usually microsomal CLint stands for the rate of metabolic loss divided by the concentration.

≈ marks a conversion by molar mass, not a printed value. Where a name gives a salt, the structure may show the parent alone. Read-outs that look alike come from different tables or passages of the source.

With `CC(C)NCC(O)COc1cccc2[nH]ccc12` (stereo not drawn) [Pindolol], the efflux ratio at 10 μM in [1] (MDCK-MDR1, pH 7.4, Assymetry Index) was determined as 1. The same compound yielded a Papp A→B at 10 μM in data set [1] (MDCK-MDR1, pH 7.4, PeAP→BL) of 31.7 ×10⁻⁶ cm/s. This compound gave a Papp B→A at 10 μM in data set [1] (MDCK-MDR1, pH 7.4, PeBL→AP) of 30.6 ×10⁻⁶ cm/s.
As for `COC(=O)[C@H]1[C@H]2C[C@@H]3c4[nH]c5cc(OC)ccc5c4CCN3C[C@H]2C[C@@H](OC(=O)c2cc(OC)c(OC)c(OC)c2)[C@@H]1OC` [Reserpine], the solubility in [2] (HBSS buffer with 0.05% Polysorbate 80, pH 7.4, aqueous with cosolvent or surfactant or cyclodextrin, kinetic from dmso stock, HBSS containing 0.05% Polysorbate 80, 2.5% DMSO, read-out: Average Aqueous Solubility, 0.05% Polysorbate 80) was 5 µM (≈ 3.04 µg/mL); in data set [2] (Hank's balanced salt solution (HBSS) buffer, aqueous buffer, kinetic from dmso stock, HBSS pH 7.4, 2.5% DMSO, read-out: Average Aqueous Solubility, pH 7.4) it was less than 1 µM.
Regarding `C[C@]12CC[C@H]3[C@@H](CCC4=CC(=O)CC[C@@]43C)[C@@H]1CC[C@@H]2O` [Testosterone], the half-life at 1 μM worked out at 4 min in data set [3]; 3 min in data set [4]; 6 min in [5] (mouse liver microsomes, 1 μM, 0.5 mg/mL, NADPH, read-out: Half-life); 11 min in data set [6]; 60 min in [7].
For the compound `CC(=O)N1CCN(c2ccc(OCC3COC(Cn4ccnc4)(c4ccc(Cl)cc4Cl)O3)cc2)CC1` (stereo not drawn) [Ketoconazole], the solubility came to 86 µM (≈ 45.7 µg/mL) in [2] (HBSS containing 0.05% Polysorbate 80, 2.5% DMSO, read-out: Average Aqueous Solubility, 0.05% Polysorbate 80) and 18 µM (≈ 9.57 µg/mL) in data set [2] (HBSS pH 7.4, 2.5% DMSO, read-out: Average Aqueous Solubility, pH 7.4).
Regarding `CNC(=C[N+](=O)[O-])NCCSCc1ccc(CN(C)C)o1` [Ranitidine], in data set [8], the “Assymetry Index” value amounted to 1.9, the PeAP→BL worked out at 1.63 ×10⁻⁶ cm/s and the PeBL→AP worked out at 3.02 ×10⁻⁶ cm/s.
On to `CC(C)(C)c1cc(NC(=O)Nc2ccc(-c3cn4c(n3)sc3cc(OCCN5CCOCC5)ccc34)cc2)no1` [Compound IA, N-(5-tert-butyl-isoxazol-3-yl)-N′-{4-[7-(2-morpholin-4-yl-ethoxy)imidazo[2,1-b][1,3]benzothiazol-2-yl]phenyl}urea], for which the microsomal CLint at 1 μM in data set [9] (pH 7.4) was 42 µL/min/mg; in data set [13], less than 23 µL/min/mg; in data set [16] it was less than 23 µL/min/mg; in [5] (mouse, microsomes), less than 23 µL/min/mg; in [19], 73 µL/min/mg. Further, the half-life at 1 μM in [9] (pH 7.4, Half-life) was 33 min; in [13] it was greater than 60 min; in data set [16], greater than 60 min; in data set [5] (mouse, microsomes) it was greater than 60 min; in [19] it was 19 min. Besides, the “In Vivo Cl” value in data set [10] (clearance call in words) was “Modest”; in [11], “Low”; in data set [15] (clearance call in words), “High”; in [17] (clearance call in words), “Low”; in data set [18], “low and Low”. Moreover, the half-life in data set [10] (setting [23]) is 366 min; in [15] (setting [23]) it was 162 min; in [17] (setting [23]) it was 414 min; in data set [20], 24 min. Besides, the EC50 amounted to 4 nM in [12] and 0.6 nM in data set [14].
For `CC(C)(C)c1cc(NC(=O)Nc2ccc(-c3cn4c(n3)sc3cc(OCCN5CCOCC5)ccc34)cc2)no1` [Compound IA, hydrochloride salt, N-(5-tert-butyl-isoxazol-3-yl)-N′-{4-[7-(2-morpholin-4-yl-ethoxy)imidazo[2,1-b][1,3]benzothiazol-2-yl]phenyl}urea, reference compound], the “Percentage of unbound compound in 10% plasma” value in data set [21] is 17%.
As to `C[C@H]1O[C@@H](O[C@H]2[C@@H](O)C[C@H](O[C@H]3[C@@H](O)C[C@H](O[C@H]4CC[C@@]5(C)[C@H](CC[C@@H]6[C@@H]5C[C@@H](O)[C@]5(C)[C@@H](C7=CC(=O)OC7)CC[C@]65O)C4)O[C@@H]3C)O[C@@H]2C)C[C@H](O)[C@@H]1O` [Digoxin, reference compound], the Papp A→B at 1 μM in data set [22] (setting [24]) was 8.76 ×10⁻⁶ cm/s; in data set [22] (setting [25]), 2.21 ×10⁻⁶ cm/s; in [22] (setting [26]), 0.24 ×10⁻⁶ cm/s; in [22] (setting [27]), 2.91 ×10⁻⁶ cm/s. For the same compound, the Papp B→A at 1 μM in data set [22] (setting [24]) stood at 29.3 ×10⁻⁶ cm/s; in [22] (setting [25]), 4.93 ×10⁻⁶ cm/s; in data set [22] (setting [26]), 20 ×10⁻⁶ cm/s; in data set [22] (setting [27]), 6.03 ×10⁻⁶ cm/s.
